Source: US20150352134A1, “COMPOSITION FOR TOPICAL SKIN APPLICATION CONTAINING GINSENOSIDE F2 DERIVED FROM HYDROPONIC GINSENG” (AMOREPACIFIC CORPORATION, priority 2012, published 2015)

What was measured:
5α-reductase = molecular target: T1, 5α-reductase (Homo sapiens, UniProt P31213); assay: 5α-reductase activity inhibition, conversion of [14C]testosterone to DHT in HEK293-5α R2 cells; assay type: cell-based; conditions: 2 hours
T1 construct: 3×FLAG; expressed in transfected cells; host or cells: HEK293
T1 sequence (P31213 1-254): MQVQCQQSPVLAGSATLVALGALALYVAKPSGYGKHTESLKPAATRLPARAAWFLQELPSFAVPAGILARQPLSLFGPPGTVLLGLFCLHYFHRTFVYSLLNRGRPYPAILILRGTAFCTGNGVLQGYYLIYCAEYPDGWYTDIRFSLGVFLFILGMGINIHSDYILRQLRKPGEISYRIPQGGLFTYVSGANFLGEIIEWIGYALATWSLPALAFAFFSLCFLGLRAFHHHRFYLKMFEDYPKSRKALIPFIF
Method: In order to evaluate the inhibitory effect on the activity of 5α-reductase, the conversion rate from [^14C]testosterone to [^14C]dihydrotestosterone (DHT) in HEK293-5α R2 cells is measured. P3×FLAG-CMV-5α R2 is transduced into HEK293 cells, which are cultured in a 24-well plate at a rate of 2.5×10^5 cells per well (Park et al., 2003, JDS. Vol. 31, pp. 191-98). The next day, the used culture medium is replaced with a new culture medium containing an enzyme substrate and an inhibitor. The substrate of the culture medium is 0.05 μCi [^14C]testosterone (Amersham Pharmacia Biotech, UK).
To evaluate the degree of 5α-reductase activity inhibition, the cells are treated with ginsenoside F2 and then cultured in a 5% CO2 incubator at 37° C. for 2 hours. In this regard, the negative control is the group not treated with ginsenoside F2, while the positive control is the group treated with finasteride. Subsequently, the culture medium is collected to extract steroids with 800 μl of ethylacetate, and the supernatant organic solvent phase is isolated and dried. The residue is dissolved in 50 μl of ethylacetate and developed on silica plastic sheet kieselgel 60 F254 using an ethylacetate-hexane (1:1) solvent.
The plastic sheet is dried out in the air and measured in regards to the abundance of isotope using a bath system. The dry plastic sheet together with an X-ray film is put in a bath cassette. After one week, the abundance of isotope of testosterone and dihydrotestosterone remaining on the film is measured to calculate the conversion rate and the inhibition rate according to the following mathematical formulas 5 and 6, respectively.

B16/F10 melanoma cells = assay: Melanogenesis inhibition in B16/F10 melanoma cells; assay type: cell-based; conditions: sample containing 0.001 wt. % of test substance; 3-day cultivation
Method: As a test substance, a sample containing 0.001 wt. % of ginsenoside F2 or kojic acid is added to a culture medium of B16/F10 melanoma cells (available from Korean Cell Line Bank) at a predetermined concentration. The culture medium is eliminated after 3-day cultivation. The cells are washed with PBS and dissolved in 1N NaOH. Then, the absorbance at 405 nm is measured. The control is the cells not treated with any test substance. In comparison with the melanin content in the control group, the inhibitory ability of each test substance against melanogenesis is measured. […] [formula]

MITF = MITF expression in melanocytes (Western Blot); assay type: cell-based; conditions: 501me1 cell line, IBMX 100 μM, ginsenoside 10 ppm
Method: (§1) 501me1 cell line is injected in each well of a 6-well microtiter plate at a rate of 500,000 cells/well. The cell line in each well is treated with 0.1% of DMSO as the negative control group, 100 μM of IBMX as the positive control group, or ginsenoside 10 ppm of F2 as the test group, and cultured at 37° C. for 24 hours, 48 hours, or 72 hours, to obtain proteins. The proteins thus obtained are subjected to Western Blot using MITF and tyrosinase antibodies. Protein extraction and Western Blot are performed using the standard methods known in the art.

Melanin-a cells = assay: Melanogenesis promotion in Melanin-a cells; assay type: cell-based; conditions: 100 μM, 3 days; DMSO (0.1%) = 100
Method: Melanin-a cells are injected in a 24-well microtiter plate at a rate of 50,000 cells per well with an RPMI medium containing 5% fetal bovine serum, 100 IU penicillin G, and 0.2 μM TPA. Next day, the cells are treated with ginsenoside F2 as a test substance independently at the final concentration of 10 ppm or 50 ppm. The negative control is treated with 0.1% DMSO, and the positive control is treated with 100 μM IBMX. Then, the cells are cultured at 37° C. for 3 days. The wells of the plate are washed with PBS, and 100 μl of 1N NaOH is added to each well to dissolve melanin in the cells. The absorbance of the dissolved melanin is measured at 405 nm with a microplate reader. The effect of the ginsenoside F2 to promote melanogenesis is evaluated in comparison with that of the control groups.

[1] = test system: mouse with vitiligo (C57b1/6-Mitf^mi-vit); assay: Grey hair prevention: melanin in newly grown hair of mouse with vitiligo; assay type: in vivo; conditions: applied twice a day, about 3 weeks, 50 mM IBMX, 2.5% ginsenoside F2
Method: A mouse with vitiligo (C57b1/6-Mitf^mi-vit) is purchased from The Jackson Lab in U.S.A. The testing method on the grey hair inhibitory effect using a mouse with lots of grey hair is carried out as follows. A 12-week old mouse is subjected to depilation on the back side. The area of the depilated region is controlled to be the same to every object. From the next day of the depilation, the grey hair inhibitory substances are applied on the depilated region twice a day. The vehicle for the grey hair inhibitory substances is the mixture of EtOH, 1,3-BG and DW (3:2:5 in volume ratio). The liquid containing the vehicle alone is the negative control, the liquid containing the vehicle in combination with 50 mM IBMX is the positive control, and the liquid containing the vehicle in combination with 2.5% ginsenoside F2 is the test group. When the difference in the grey hair inhibitory effect between the substances is visually recognizable in about 3 weeks, the newly grown hair is collected to measure the quantity of melanin produced in the hair. The quantity of melanin in the hair is measured using esperase (Novozyme) strains that are a protein hydrolase. Esperase is dissolved in a buffer solution (50 mM tris-HCl, 5 mM DTT, pH 9.3) to a concentration of 1 NPU/ml to prepare a reaction buffer. 5 mg of mouse hair is put in 1 ml of the reaction buffer, which is stirred at a speed of 1,000 rpm at 37° C. for 13 hours to cause the reaction and then subjected to a momentary centrifugal isolation to separate the reactant solution from hair. The reactant solution thus obtained is placed in each well of a 96-well plate, and the absorbance at 405 nm is measured to determine the amount of melanin in the reactant solution. When a mouse with vitiligo and lots of grey hair is treated with the negative control substance, the positive control substance, or the test substance, the efficacies are visually observed, and the melanin in hair is quantitatively analyzed.

tyrosinase [2] = assay: Tyrosinase expression in melanocytes (Western Blot); assay type: cell-based; conditions: 501me1 cell line, IBMX 100 μM, ginsenoside 10 ppm
Method: as §1

[3] = test system: procollagen type (I) in fibroblasts; assay: Collagen biosynthesis in fibroblasts (procollagen type (I) ELISA); assay type: cell-based; conditions: 10 ng/ml, 24 hours; non-treated group = 100%
Method: The ginsenoside F2 of the present invention is compared with TGF-β in regards to the effect of promoting biosynthesis of collagen. Firstly, fibroblasts are seeded in 24 wells at a rate of 10^5 per well and cultured until the growth reaches 90%. The fibroblasts are cultured in a non-serum culture medium for 24 hours, treated with each 10 ng/ml of ginsenoside F2 or TGF-β dissolved in the non-serum culture medium, and then cultured in a CO2 incubator for 24 hours. The supernatant liquid is collected to determine an increase or decrease of procollagen using a procollagen type (I) ELISA kit. The collagen synthesis ability is denoted with respect to 100% for the non-treated group.

[4] = test system: potassium ion channels (KATP channels); assay: KATP channel opener test: recovery of NIH3T3 proliferation blocked by tolbutamide (WST-1); assay type: cell-based, mouse; conditions: 10 μM minoxidil after 2.5 mM tolbutamide, 48 hours
Text: Minoxidil, a treatment for hair loss, is known as a potassium ion channel opener (KATP channel opener) potentially acting on mitochondria and a representative drug used for treatment of androgenic alopecia (hair loss). A testing method used to evaluate the action of minoxidil includes treating with tolbutamide (SIGMA-ALDRICH, T0891) blocking the potassium ion channels (KATP channels) in fibroblasts constituting the corium of scalp to inhibit cell proliferation and then opening the potassium ion channels (KATP channels) to resume the cell proliferation. In order to evaluate the function of the composition of the present invention as a KATP channel opener, the present invention uses a mouse embryonic fibroblast cell line, NIH3T3, as fibroblasts. The cell line is obtained by naturally immortalizing a fibroblast cell line isolated from an NIH Swiss mouse embryo with 3T3 protocol. The cell line is cultured with DMEM (Dulbecco's modified eagle's medium, Gibco BRL, Gaithersburg, Md., U.S.A.) containing 10% FBS (Fetal Bovine Serum) in an incubator under the conditions of 5% CO2 and 37° C. for 24 hours.

collagenase (MMP-1) = assay: Collagenase (MMP-1) expression in human fibroblasts (ELISA); assay type: cell-based; conditions: 10 μg/mL for 24 hours; not treated control = 100
Method: The ginsenoside F2 of the present invention is measured in regards to the inhibitory effect on the generation of collagenase in comparison with retinoic acid. […] The human fibroblasts are treated with ginsenoside F2 or retinoic acid at a concentration of 10 μg/mL for 24 hours. Then, the cell culture medium is collected. The production yield of collagenase in the collected cell culture medium is measured using a collagenase measurement instrument commercially available (Catalog #. RPN 2610, USA Amersham Pharma Inc.). Firstly, the collected cell culture medium is put in each well of a 96-well plate uniformly coated with the primary collagenase antibodies and then subjected to antigen-antibody reactions in a thermostat container for 3 hours. After 3 hours, the secondary collagenase antibodies coupled to the chromophore groups are put in each well of the 96-well plate and then allowed to react for more 15 minutes. […] The intensity of yellowness in the reaction mixture is varied depending on the progress of the reaction. The absorbance of the yellow-colored 96-well plate is measured at 405 nm with a spectrophotometer, and the expression level of collagenase is calculated according to the following mathematical formula 2. In this regard, the absorbance of the cell culture medium collected from the group not treated with the composition of the present invention is considered as the absorbance of the control. [formula]

tyrosinase [5] = assay: Tyrosinase inhibitory effect; assay type: biochemical, mushrooms; conditions: 37° C., absorbance 475 nm
Method: The tyrosinase as used herein is an enzyme extracted from mushrooms and purchased from Sigma-Aldrich. Firstly, tyrosine as a substrate is dissolved in distilled water to prepare a 0.3 mg/mL solution, which is added dropwise to a test tube at an amount of 1.0 mL each time. To the solution are added 1.0 mL of a potassium phosphate buffer solution (0.1 mol, pH 6.8) and 0.7 mL of distilled water.
0.2 mL of the sample solution is added to the reactant solution and then allowed to have a reaction in a thermostat container at 37° C. for 10 minutes. In this regards, the control is the reactant solution containing 0.2 mL of a solvent alone in place of each sample solution. The positive control uses ascorbic acid. 0.1 mL of a 2500 unit/mL tyrosinase solution is added to the reactant solution, which is then allowed to have a reaction again in a thermostat container at 37° C. for 10 minutes. The test tube filled with the reactant solution is put into an ice water to cause quenching and thus stop the reaction. The absorbance at 475 nm is measured with a photoelectric spectrophotometer. The tyrosinase inhibitory effect is calculated according to the following mathematical formula 3.

elastase type III = molecular target: T2, elastase type III (Sus scrofa, UniProt P00772); assay: Elastase inhibitory effect; assay type: biochemical; conditions: EGCG 250 μM; 25° C., 15 minutes, absorbance 415 nm
T2 construct: purchased Sigma-Aldrich E0127
Method: The elastase inhibitory function of the ginsenoside F2 is measured in comparison with that of EGCG. The elastase and the substrate used herein are purchased from Sigma-Aldrich, U.S.A. (Cat. No. E0127).
The elastase inhibitory function is measured according to the following method.
In a 96-well plate, ginsenoside F2 (200 μL) and 50 μL of a 20 μg/mL elastase type III solution are mixed with a […] tris-HCL buffer solution (pH 8.0). The positive control is EGCG 250 μM, and the negative control which is a non-treated group is distilled water. Then, 100 μL of 0.4514 mg/mL N-succinyl-ala-ala-ala-p-nitroanilide prepared with the buffer solution is added to the mixture and allowed to react at 25° C. for 15 minutes. After completion of the reaction, the absorbance at 415 nm was measured. The blank test is performed in the same manner as described above to achieve calibration verification.
The elastase inhibitory function is calculated according to the following mathematical formula 1, and the results are presented in Table 2.
Elastase inhibition rate (%)={1−(C−D)/(A−B)}×100 [Mathematical Formula 1]
A: Absorbance at 415 nm with enzyme and no test substance.
B: Absorbance at 415 nm with no test substance and no enzyme.
C: Absorbance at 415 nm with test substance and enzyme.
D: Absorbance at 415 nm with test substance and no enzyme.

T2 sequence (P00772 27-266): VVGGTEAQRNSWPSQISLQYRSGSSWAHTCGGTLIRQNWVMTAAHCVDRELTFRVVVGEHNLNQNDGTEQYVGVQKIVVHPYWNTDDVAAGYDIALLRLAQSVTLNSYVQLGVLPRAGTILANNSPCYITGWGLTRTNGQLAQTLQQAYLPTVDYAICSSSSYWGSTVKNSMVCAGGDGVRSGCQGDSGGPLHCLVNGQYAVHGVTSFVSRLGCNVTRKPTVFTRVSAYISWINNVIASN

CC(C)(C)NC(=O)[C@H]1CC[C@H]2[C@@H]3CC[C@H]4NC(=O)C=C[C@]4(C)[C@H]3CC[C@]12C [Positive control, finasteride, reference compound]
Inhibition rate (%) (5α-reductase; 5α-reductase activity): 42.5%
Conversion rate (%) (5α-reductase; testosterone to dihydrotestosterone): 27.6%

O=c1cc(CO)occ1O [Kojic acid, kojic acid]
Melanogenesis inhibition rate (%) (B16/F10 melanoma cells): 53%

CC(C)Cn1c(=O)n(C)c(=O)c2[nH]cnc21 [IBMX]
MITF (Western Blot, in comparison with 100 of the negative control group) (MITF; 24 hrs): 121
MITF (Western Blot, in comparison with 100 of the negative control group) (MITF; 48 hrs): 98
MITF (Western Blot, in comparison with 100 of the negative control group) (MITF; 72 hrs): 224
Yield of Melanin (%) (Melanin-a cells): 120%
Amount of melanin (%) with respect to control [1]: 105.9%
Tyrosinase (Western Blot, in comparison with 100 of the negative control group) (tyrosinase [2]; 24 hrs): 160
Tyrosinase (Western Blot, in comparison with 100 of the negative control group) (tyrosinase [2]; 48 hrs): 149
Tyrosinase (Western Blot, in comparison with 100 of the negative control group) (tyrosinase [2]; 72 hrs): 298

TGF-β
Collagen synthesis ability (%) [3]: 183.5%

Nc1cc(N2CCCCC2)nc(N)[n+]1[O-] [Minoxidil]
Cell proliferation ability (%) [4]: 132%

CC1=C(/C=C/C(C)=C/C=C/C(C)=C/C(=O)O)C(C)(C)CCC1 [Retinoic acid, retinoic acid]
Collagenase expression level(%) (collagenase (MMP-1)): 75%

O=C1O[C@H]([C@@H](O)CO)C(O)=C1O [Ascorbic acid, ascorbic acid]
Tyrosinase inhibition rate (%) (tyrosinase [5]): 52%

O=C(O[C@@H]1Cc2c(O)cc(O)cc2O[C@@H]1c1cc(O)c(O)c(O)c1)c1cc(O)c(O)c(O)c1 [EGCG]
Inhibition rate (%) (elastase) (elastase type III): 65%
